According to US20100144819A1, “Synergistic Methods for Control of Pests” (FMC A[…]. LTD., priority 2008, published 2010):

Experiments:
[1] = tested on: German cockroach (Blatella germanica); assay: German cockroach mortality on treated filter paper; type: in vivo, Blattella germanica; details: 24 h
From the text: (§1) The presence of a synergistic effect between the two active ingredients is established with the aid of the Colby equation (see Colby, S. R., “Calculating Synergistic and Antagonistic Responses of Herbicide Combinations”, Weeds 1967, 15, pg 20-22): E=X+Y−(XY/100).
(§2) Using the method of Colby, the presence of asynergistic interaction between two active ingredients is established by first calculating the expected activity, ‘E’, of the mixture based on activities of the two components applied alone. If ‘E’ is lower than the observed activity, synergy is present. In the equation above, ‘X’ is the percentage control observed when bifenthrin applied alone at rate ‘x’. The ‘Y’ term is percentage control observed when fipronil applied alone at rate ‘y’. The equation calculates ‘E’, the expected activity of the mixture of ‘X’ at rate ‘x’ with ‘Y’ at rate ‘y’ if their effects are strictly additive and no interaction has occurred.
The compositions of the present invention were tested for German cockroach (Blatella germanica) activity in the following manner.
Test solutions were made by dissolving technical grade bifenthrin and fipronil in acetone to provide appropriate rates of application of bifenthrin and fipronil alone, as well as combinations of bifenthrin and fipronil. The active ingredient concentrations tested were from 50 parts per million (0.05 mg of active ingredient/mL or 0.05 g/L) to 500 parts per million (0.5 mg of active ingredient/mL or 0.5 g/L), four replicates per rate. In a fume cabinet, one milliliter of a test solution was applied to a 9 cm Whatman® 2 qualitative filter paper using a calibrated pipette. The application started at the center of the filter paper with individual drops being applied in an outward circular motion so that the entire filter paper was uniformly treated. Acetone only (one mL) was applied in the same manner to provide an untreated control (UTC). The treated filter papers were allowed to dry for two hours. The dried, treated or untreated filter paper was placed into a plastic Petri dish and ten late instar, healthy and active German cockroaches (Blattella germanica) were momentarily immobilized using carbon dioxide and then placed onto the filter paper. The lid of each Petri dish was put on to contain the cockroaches. The Petri dishes were maintained at a temperature of 25° C. to 30° C. at ambient relative humidity out of direct sunlight. German cockroach mortality was assessed after 24 hours by counting the number of alive and the number of knocked down/dead cockroaches.
In order to compare the pesticidal effectiveness of the individual and combination treatments the LC 50 and LC 90 values (lethal concentration in ppm that would effectively knock down/kill 50% or 90% of the test pests) were calculated. In calculating the LC values for the various mixtures of bifenthrin and fipronil, probit analysis was conducted on the fipronil concentration of the mixture. […] The values calculated from the data of Table 1 are in Table 1A below.

[2] = tested on: American cockroach (Periplaneta americana); assay: American cockroach mortality on treated filter paper; type: in vivo; details: 24 h
From the text: as §1, §2
The compositions of the present invention were tested for American cockroach (Periplaneta americana) activity in the following manner:
Test solutions were made by dissolving technical grade bifenthrin and fipronil in acetone to provide appropriate rates of application of bifenthrin and fipronil alone, as well as combinations of bifenthrin and fipronil. The active ingredient concentrations tested were from 10 part per million (0.01 mg of active ingredient/mL or 0.01 g/L) to 1000 parts per million (1.0 mg of active ingredient/mL or 1.0 g/L), four replicates per rate. In a fume cabinet, one milliliter of a test solution was applied to a 9 cm Whatman® 2 qualitative filter paper using a calibrated pipette. The application started at the center of the filter paper with individual drops being applied in an outward circular motion so that the entire filter paper was uniformly treated. Acetone only (one mL) was applied in the same manner to provide an untreated control (UTC). The treated filter papers were allowed to dry for two hours. The dried, treated or untreated filter paper was placed into a plastic cup having a base diameter of 90 mm, in which the upper portion of the walls of the plastic cup were coated with a fluoropolymer resin (PFTE-30) insect barrier (Fluoron® available from BioQuip Products Inc.) to prevent the insects from climbing out of the container. Ten late instar, healthy and active American cockroaches (Periplaneta americana) were momentarily immobilized using carbon dioxide and then placed onto the filter paper. The top of the plastic containers were covered with gauze to contain the cockroaches. The plastic containers were maintained at a temperature of 25° C. to 30° C. at ambient relative humidity out of direct sunlight. American cockroach mortality was assessed after 24 hours by counting the number of alive and the number of knocked down/dead cockroaches.
In order to compare the pesticidal effectiveness of the individual and combination treatments the LC 50 and LC 90 values (lethal concentration in ppm that would effectively knock down/kill 50% or 90% of the test pests) were calculated. In calculating the LC values for the various mixtures of bifenthrin and fipronil, probit analysis was conducted on the bifenthrin in concentration of the mixture. […] The values calculated from the data of Table 2 are in Table 2A below.

[3] = tested on: black house spider (Badumna insignis); assay: Black house spider mortality on treated pine plywood; type: in vivo; details: suspension concentrate diluted in water, 24 h
From the text: as §1, §2
The compositions of the present invention were tested for black house spider (Badumna insignis) activity in the following manner:
Formulations of the test compounds were made as follows: • 1).
The testing was conducted on pine plywood surfaces that had dimensions of 20 cm×20 cm. The above formulations were diluted in water to achieve the desired concentration rate in grams of active ingredient per liter prior to application to the pine plywood. Each treatment was applied using an airbrush sprayer and compressed air as the propellant. The equipment was calibrated prior to use and the treatments were applied to the pine plywood surfaces at a rate of 1 L/10 m^2 (4 mL of final test solution per 20 cm×20 cm pine plywood surface)'. For example, in order to obtain a application rate of […] of active ingredient per 10 m^2, 1.25 mL of the fipronil formulation 1) which contained 100 gram per liter suspension concentrate formulation of fipronil, was diluted in 1 liter of water to make a final test solution. Four mL of the final test solution was sprayed onto the pine plywood surface. The treated pine plywood was allowed to air dry at ambient temperature by storing horizontally away from direct sunlight. Three black house spiders, medium to large in size collected from the field 1 to 2 days prior to testing, were placed separately under untreated portion cups (7 cm diameter by 7 cm deep) on the treated pine plywood surfaces. The untreated portion cups provided an opportunity for the spiders to seek an untreated area. The spiders were assessed after 24 hours exposure by counting the number of alive and the number of knocked down/dead spiders. There were three replications of each treatment.

[4] = probit analysis of Table 1 data, mixtures as bifenthrin:fipronil
[5] = probit analysis of Table 2 data, mixtures as bifenthrin:fipronil

Cc1c(COC(=O)[C@@H]2[C@H](/C=C(\Cl)C(F)(F)F)C2(C)C)cccc1-c1ccccc1 (racemic) [Bifenthrin, 2-methylbiphenyl-3-ylmethyl (Z)-(1RS)-cis-3-(2-chloro-3,3,3-trifluoroprop-1-enyl)-2,2-dimethylcyclopropanecarboxylate]
% Observed Control ([1]; 100 ppm (0.1 mg/mL)): 2.5% | Mortality Rep 1 dead/alive ([1]; 100 ppm (0.1 mg/mL)): 0/10 | Mortality Rep 2 dead/alive ([1]; 100 ppm (0.1 mg/mL)): 0/10 | Mortality Rep 3 dead/alive ([1]; 100 ppm (0.1 mg/mL)): 0/10 | Mortality Rep 4 dead/alive ([1]; 100 ppm (0.1 mg/mL)): 1/9 | % Observed Control ([1]; 250 ppm (0.25 mg/mL)): 90% | Mortality Rep 1 dead/alive ([1]; 250 ppm (0.25 mg/mL)): 9/1 | Mortality Rep 2 dead/alive ([1]; 250 ppm (0.25 mg/mL)): 9/1 | Mortality Rep 3 dead/alive ([1]; 250 ppm (0.25 mg/mL)): 9/1 | Mortality Rep 4 dead/alive ([1]; 250 ppm (0.25 mg/mL)): 9/1 | % Observed Control ([1]; 500 ppm (0.5 mg/mL)): 97.5% | Mortality Rep 1 dead/alive ([1]; 500 ppm (0.5 mg/mL)): 10/0 | Mortality Rep 2 dead/alive ([1]; 500 ppm (0.5 mg/mL)): 10/0 | Mortality Rep 3 dead/alive ([1]; 500 ppm (0.5 mg/mL)): 10/0 | Mortality Rep 4 dead/alive ([1]; 500 ppm (0.5 mg/mL)): 9/1 | LC 50 [1, 4]: 193 ppm | LC 90 [1, 4]: 301 ppm | % Observed Control ([2]; 100 ppm (0.1 mg/mL)): 2.5% | Mortality Rep 1 dead/alive ([2]; 100 ppm (0.1 mg/mL)): 1/9 | Mortality Rep 2 dead/alive ([2]; 100 ppm (0.1 mg/mL)): 0/10 | Mortality Rep 3 dead/alive ([2]; 100 ppm (0.1 mg/mL)): 0/10 | Mortality Rep 4 dead/alive ([2]; 100 ppm (0.1 mg/mL)): 0/10 | % Observed Control ([2]; 125 ppm (0.125 mg/mL)): 45% | Mortality Rep 1 dead/alive ([2]; 125 ppm (0.125 mg/mL)): 1/9 | Mortality Rep 2 dead/alive ([2]; 125 ppm (0.125 mg/mL)): 10/0 | Mortality Rep 3 dead/alive ([2]; 125 ppm (0.125 mg/mL)): 7/3 | Mortality Rep 4 dead/alive ([2]; 125 ppm (0.125 mg/mL)): 0/10 | % Observed Control ([2]; 200 ppm (0.2 mg/mL)): 10% | Mortality Rep 1 dead/alive ([2]; 200 ppm (0.2 mg/mL)): 0/10 | Mortality Rep 2 dead/alive ([2]; 200 ppm (0.2 mg/mL)): 0/10 | Mortality Rep 3 dead/alive ([2]; 200 ppm (0.2 mg/mL)): 0/10 | Mortality Rep 4 dead/alive ([2]; 200 ppm (0.2 mg/mL)): 4/6 | % Observed Control ([2]; 250 ppm (0.25 mg/mL)): 12.5% | Mortality Rep 1 dead/alive ([2]; 250 ppm (0.25 mg/mL)): 1/9 | Mortality Rep 2 dead/alive ([2]; 250 ppm (0.25 mg/mL)): 1/9 | Mortality Rep 3 dead/alive ([2]; 250 ppm (0.25 mg/mL)): 2/8 | Mortality Rep 4 dead/alive ([2]; 250 ppm (0.25 mg/mL)): 1/9 | % Observed Control ([2]; 400 ppm (0.4 mg/mL)): 22.5% | Mortality Rep 1 dead/alive ([2]; 400 ppm (0.4 mg/mL)): 1/9 | Mortality Rep 2 dead/alive ([2]; 400 ppm (0.4 mg/mL)): 2/8 | Mortality Rep 3 dead/alive ([2]; 400 ppm (0.4 mg/mL)): 4/6 | Mortality Rep 4 dead/alive ([2]; 400 ppm (0.4 mg/mL)): 2/8 | % Observed Control ([2]; 500 ppm (0.5 mg/mL)): 25% | Mortality Rep 1 dead/alive ([2]; 500 ppm (0.5 mg/mL)): 0/10 | Mortality Rep 2 dead/alive ([2]; 500 ppm (0.5 mg/mL)): 5/5 | Mortality Rep 3 dead/alive ([2]; 500 ppm (0.5 mg/mL)): 2/8 | Mortality Rep 4 dead/alive ([2]; 500 ppm (0.5 mg/mL)): 3/7 | % Observed Control ([2]; 1000 ppm (1.0 mg/mL)): 97.5% | Mortality Rep 1 dead/alive ([2]; 1000 ppm (1.0 mg/mL)): 10/0 | Mortality Rep 2 dead/alive ([2]; 1000 ppm (1.0 mg/mL)): 10/0 | Mortality Rep 3 dead/alive ([2]; 1000 ppm (1.0 mg/mL)): 10/0 | Mortality Rep 4 dead/alive ([2]; 1000 ppm (1.0 mg/mL)): 9/1 | LC 50 [2, 5]: 906 ppm | LC 90 [2, 5]: 1618 ppm | Observed % Control ([3]; 0.25 g ai/L at 1 L/10 m^2): 88.9% | Observed % Control ([3]; 0.5 g ai/L at 1 L/10 m^2): 88.9%
